# Patent publication US20260345619A1 (Principia Biopharma Inc., priority 2023, published 2026)
# Assay: Loss of asthma control (LOAC) events, 12-week ICS/LABA withdrawal study
# Assay type: in vivo, human
# Source text: The general construct of this 12-week Loss of Asthma Control (LOAC) study consisted of a 4-week standardized ICS/LABA background therapy stabilization phase, a 4or 5-week background therapy withdrawal phase and a 3- or 4-week no background therapy phase, followed by a 4-week post IMP treatment safety follow-up period at the beginning of which, pre-screening asthma controller medications are restarted. Participants had access to short-acting β-agonist (SABA) reliever medication at all times during the protocol.
# The primary endpoint was the proportion of patients with LOAC. The key secondary endpoint for the study was change in pre-bronchodilator FEV1 from baseline at EOT.
# The primary endpoint was proportion of participants with LOAC during the 12-week treatment period.
# Note that if the number of participants in some regions was too low, these regions may have been pooled with other regions. This strategy also applied to all the rest of the analyses where region was one of the covariates.
# To assess the consistency in treatment effects across different subgroup levels, subgroup analyses were to be performed for the primary efficacy endpoint with respect to age group, gender, region, and other factors.
# Secondary endpoints included pre-bronchodilator FEV1 change from baseline at EOT, ACQ-5 score change from baseline, and AQLQ score change from baseline. Other secondary and exploratory endpoints are described in Table 2.
# [1] = 400 mg TID cohort, N = 64, mITT
# [2] = 400 mg TID cohort, age <45 years, n = 25
# [3] = 400 mg TID cohort, age ≥45 years, n = 39
# [4] = 400 mg TID cohort, baseline BMI <25 kg/m^2, n = 12
# [5] = 400 mg TID cohort, baseline BMI ≥25-<30 kg/m^2, n = 29
# [6] = 400 mg TID cohort, baseline BMI ≥30 kg/m^2, n = 23
# [7] = 400 mg TID cohort, baseline weight <60 kg, n = 2
# [8] = 400 mg TID cohort, baseline weight ≥60-<90 kg, n = 41
# [9] = 400 mg TID cohort, baseline weight ≥90 kg, n = 21
# [10] = 400 mg TID cohort, female, n = 39
# [11] = 400 mg TID cohort, male, n = 25
# [12] = 400 mg TID, N=64, 12 weeks, mITT
# [13] = 400 mg TID, 1 exacerbation within 2 years
# [14] = 400 mg TID, 2 exacerbations within 2 years
# [15] = 400 mg TID, FEV1 reversibility <12 %
# [16] = 400 mg TID, FEV1 reversibility ≥12 %
# [17] = 400 mg TID, age at onset <12 years
# [18] = 400 mg TID, age at onset <18 years
# [19] = 400 mg TID, age at onset ≥18-<40 years
# [20] = 400 mg TID, age at onset ≥18 years
# [21] = 400 mg TID, age at onset ≥40 years
structure (smiles),measurement,setting,value
"CC(C)(C=C(C#N)C(=O)N1CCC[C@@H](n2nc(-c3ccc(Oc4ccccc4)cc3F)c3c(N)ncnc32)C1)N1CCN(C2COC2)CC1 (mixture of isomers) [rilzabrutinib, (R)-2-[3-[4-amino-3-(2-fluoro-4-phenoxy-phenyl)pyrazolo[3,4-d]pyrimidin-1-yl]piperidine-1-carbonyl]-4-methyl-4-[4-(oxetan-3-yl)piperazin-1-yl]pent-2-enenitrile]","Intervention discontinuation due to lack of efficacy or an AE related to asthma worsening, number",[1],1
same,"Intervention discontinuation due to lack of efficacy or an AE related to asthma worsening, percentage",[1],(1.6)
same,Number of participants requiring hospitalization or emergency room visit,[1],0
same,Number of participants with LOAC: Yes,[1],12
same,Number of participants with increase in ICS ≥4 times the last prescribed ICS dose (or ≥50% of the prescribed ICS dose at baseline if background therapy withdrawal completed),[1],0
same,Number of participants with ≥6 additional reliever puffs of salbutamol/albuterol or levosalbutamol/levalbuterol in a 24 hour period (compared with baseline) on 2 consecutive days,[1],0
same,Number of participants with ≥30% reduction from baseline in AM PEF on 2 consecutive days,[1],10
same,"Participants with LOAC not triggered by use of rescue medication, number",[1],10
same,"Participants with LOAC not triggered by use of rescue medication, percentage",[1],(15.6)
same,"Participants with LOAC triggered by use of rescue medication, number",[1],1
same,"Participants with LOAC triggered by use of rescue medication, percentage",[1],(1.6)
same,Percentage of participants with LOAC: No,[1],(81.3)
same,Percentage of participants with LOAC: Yes,[1],(18.8)
same,Percentage of participants with ≥30% reduction from baseline in AM PEF on 2 consecutive days,[1],(15.6)
same,"LOAC incidence, number of participants","400 mg TID cohort, Western Countries, n = 2",0
same,"LOAC incidence, number of participants",[2],2
same,"LOAC incidence, percentage",[2],(8.0)
same,LOAC OR vs. placebo,"400 mg TID cohort, age <45 years, 95% CI (0.028, 0.725)",0.142
same,LOAC RD vs. placebo,"400 mg TID cohort, age <45 years, 95% CI (−0.505, −0.093)",−0.299
same,"LOAC incidence, number of participants",[3],10
same,"LOAC incidence, percentage",[3],(25.6)
same,LOAC OR vs. placebo,"400 mg TID cohort, age ≥45 years, 95% CI (0.408, 3.236)",1.149
same,LOAC RD vs. placebo,"400 mg TID cohort, age ≥45 years, 95% CI (−0.165, 0.216)",0.026
same,"LOAC incidence, number of participants",[4],3
same,"LOAC incidence, percentage",[4],(25.0)
same,LOAC OR vs. placebo,"400 mg TID cohort, baseline BMI <25 kg/m^2, 95% CI (0.121, 2.801)",0.583
same,LOAC RD vs. placebo,"400 mg TID cohort, baseline BMI <25 kg/m^2, 95% CI (−0.431, 0.203)",−0.114
same,"LOAC incidence, number of participants",[5],3
same,"LOAC incidence, percentage",[5],(10.3)
same,LOAC OR vs. placebo,"400 mg TID cohort, baseline BMI ≥25-<30 kg/m^2, 95% CI (0.064, 1.172)",0.274
same,LOAC RD vs. placebo,"400 mg TID cohort, baseline BMI ≥25-<30 kg/m^2, 95% CI (−0.398, 0.012)",−0.193
same,"LOAC incidence, number of participants",[6],6
same,"LOAC incidence, percentage",[6],(26.1)
same,LOAC OR vs. placebo,"400 mg TID cohort, baseline BMI ≥30 kg/m^2, 95% CI (0.313, 5.604)",1.324
same,LOAC RD vs. placebo,"400 mg TID cohort, baseline BMI ≥30 kg/m^2, 95% CI (−0.206, 0.307)",0.050
same,"LOAC incidence, number of participants",[7],1
same,"LOAC incidence, percentage",[7],(50.0)
same,LOAC OR vs. placebo,"400 mg TID cohort, baseline weight <60 kg, 95% CI (0.140, 64.262)",3.000
same,LOAC RD vs. placebo,"400 mg TID cohort, baseline weight <60 kg, 95% CI (−0.485, 0.985)",0.250
same,"LOAC incidence, number of participants",[8],8
same,"LOAC incidence, percentage",[8],(19.5)
same,LOAC OR vs. placebo,"400 mg TID cohort, baseline weight ≥60-<90 kg, 95% CI (0.182, 1.392)",0.503
same,LOAC RD vs. placebo,"400 mg TID cohort, baseline weight ≥60-<90 kg, 95% CI (−0.319, 0.059)",−0.130
same,"LOAC incidence, number of participants",[9],3
same,"LOAC incidence, percentage",[9],(14.3)
same,LOAC OR vs. placebo,"400 mg TID cohort, baseline weight ≥90 kg, 95% CI (0.095, 2.645)",0.500
same,LOAC RD vs. placebo,"400 mg TID cohort, baseline weight ≥90 kg, 95% CI (−0.367, 0.153)",−0.107
same,"LOAC incidence, number of participants",[10],8
same,"LOAC incidence, percentage",[10],(20.5)
same,LOAC OR vs. placebo,"400 mg TID cohort, female, 95% CI (0.224, 1.828)",0.640
same,LOAC RD vs. placebo,"400 mg TID cohort, female, 95% CI (−0.291, 0.123)",−0.084
same,"LOAC incidence, number of participants",[11],4
same,"LOAC incidence, percentage",[11],(16.0)
same,LOAC OR vs. placebo,"400 mg TID cohort, male, 95% CI (0.091, 1.966)",0.423
same,"participants without LOAC, number",[12],52
same,"participants without LOAC, percent",[12],(81.3)
same,"participants with LOAC, number","400 mg TID, N=64, 12 weeks, mITT, placebo 20",12
same,"participants with LOAC, percent","400 mg TID, N=64, 12 weeks, mITT, placebo […]",18.8%
same,"RRR vs. placebo (%), LOAC","400 mg TID, mITT",34.7%
same,"RR vs. placebo, LOAC","400 mg TID, mITT, 95% CI 0.348, 1.226",0.653
same,"RD (risk difference) vs. placebo, LOAC","400 mg TID, mITT, 95% CI −0.238, 0.061",−0.088
same,OR vs. placebo,[13],0.323
same,RD vs. Placebo,[13],−0.194
same,"LOAC, number",[14],7
same,OR vs. placebo,[14],1.896
same,RD vs. Placebo,[14],0.117
same,"LOAC, number","400 mg TID, >2 exacerbations within 2 years",0
same,"LOAC, number",[15],9
same,OR vs. placebo,[15],0.643
same,RD vs. Placebo,[15],−0.082
same,"LOAC, number",[16],1
same,OR vs. placebo,[16],0.417
same,RD vs. Placebo,[16],−0.090
same,"LOAC, number",[17],2
same,OR vs. placebo,[17],0.250
same,RD vs. Placebo,[17],−0.257
same,"LOAC, number",[18],2
same,OR vs. placebo,[18],0.218
same,RD vs. Placebo,[18],−0.245
same,"LOAC, number","400 mg TID, age at onset ≥12-<18 years",0
same,"LOAC, number",[19],6
same,OR vs. placebo,[19],0.514
same,RD vs. Placebo,[19],−0.135
same,"LOAC, number",[20],10
same,OR vs. placebo,[20],0.769
same,RD vs. Placebo,[20],−0.049
same,"LOAC, number",[21],4
same,OR vs. placebo,[21],1.619
same,RD vs. Placebo,[21],0.072
same,"LOAC, number","400 mg TID, all others than low EOS and low FeNO",8
